Measurements: ChEMBL document CHEMBL1201862, “PubChem BioAssay data set” (2004)
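Interpolation was linear, between the two tested concentrations surrounding the appropriate level; five concentrations were tested over 48 hours in 96-well plates. At the GI50, growth is halved.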 Activity calls are given as the source filed them. No stated cut-off is given here; in the data, active = GI50 up to about 1.1 µM and inactive = higher. Where a SMILES comes first, the peptide text is derived from it. The star is where a group is joined. Boc = CC(C)(C)OC(=O)*

What was measured:
Test in all cases: NCI anticancer screen, dose series, 48 h
CAKI-1 = test system: CAKI-1
CCRF-CEM = test system: CCRF-CEM
COLO 205 = test system: COLO 205
HOP-62 = test system: HOP-62
KM12 = test system: KM12
LOX IMVI = test system: LOX IMVI
M14 = test system: M14
MCF7 = test system: MCF7
NCI-H23 = test system: NCI-H23
NCI-H522 = test system: NCI-H522
OVCAR-8 = test system: OVCAR-8
SK-MEL-5 = test system: SK-MEL-5
SNB-19 = test system: SNB-19
SW-620 = test system: SW-620
UACC-62 = test system: UACC-62
A498 = test system: A498
HL-60 = test system: HL-60
HT-29 = test system: HT-29
RPMI-8226 = test system: RPMI-8226
TK-10 = test system: TK-10

| Structure (SMILES) | GI50 (CAKI-1) | GI50 (CCRF-CEM) | GI50 (COLO 205) | GI50 (HOP-62) | GI50 (KM12) | GI50 (LOX IMVI) | GI50 (M14) | GI50 (MCF7) | GI50 (NCI-H23) | GI50 (NCI-H522) | GI50 (OVCAR-8) | GI50 (SK-MEL-5) | GI50 (SNB-19) | GI50 (SW-620) | GI50 (UACC-62) | GI50 (A498) | GI50 (HL-60) | GI50 (HT-29) | GI50 (RPMI-8226) | GI50 (TK-10) |
| --- | --- | --- | --- | --- | --- | --- | --- | --- | --- | --- | --- | --- | --- | --- | --- | --- | --- | --- | --- | --- |
| CN(Cc1cnc2nc(N)nc(N)c2n1)c1ccc(C(=O)N[C@@H](CCS(=O)(=O)O)C(=O)O)cc1 | > 100 µM (inactive) | > 100 µM (inactive) | > 100 µM (inactive) | 1.99 µM (inactive) | 1.64 µM (inactive) | 0.0526 µM (active) | 0.111 µM (active) | 0.127 µM (active) | 0.458 µM (active) | 0.574 µM (active) | 21.8 µM (inactive) | 0.541 µM (active) | 0.582 µM (active) | 0.0824 µM (active) | 0.248 µM (active) | – | – | – | – | – |
| N#CC1(c2nc3ccccc3o2)C(=O)C(=O)N(C2C3CC4CC(C3)CC2C4)C(=O)C1=O (stereo not given) | > 100 µM (inactive) | 64.9 µM (inactive) | > 100 µM (inactive) | > 100 µM (inactive) | > 100 µM (inactive) | > 100 µM (inactive) | > 100 µM (inactive) | – | > 100 µM (inactive) | > 100 µM (inactive) | > 100 µM (inactive) | > 100 µM (inactive) | > 100 µM (inactive) | > 100 µM (inactive) | > 100 µM (inactive) | > 100 µM (inactive) | 42 µM (inactive) | > 100 µM (inactive) | 26.4 µM (inactive) | > 100 µM (inactive) |
| CN1CN(c2ccccc2)C2(CCN(CCCC(=O)c3cccs3)CC2)C1=O | 33.1 µM (inactive) | 30.3 µM (inactive) | 17.3 µM (inactive) | 19.3 µM (inactive) | 75.7 µM (inactive) | 47.1 µM (inactive) | 95.5 µM (inactive) | 25.2 µM (inactive) | 51.2 µM (inactive) | > 100 µM (inactive) | 55.8 µM (inactive) | 22.9 µM (inactive) | 47.5 µM (inactive) | 42.2 µM (inactive) | > 100 µM (inactive) | – | 52.8 µM (inactive) | 21.2 µM (inactive) | 29.8 µM (inactive) | 27.7 µM (inactive) |
| O=C(O)C1(Cc2ccc3c(c2)CCC3)Cc2cc3c(cc2C1)CCC3 | – | > 100 µM (inactive) | > 100 µM (inactive) | – | > 100 µM (inactive) | > 100 µM (inactive) | > 100 µM (inactive) | > 100 µM (inactive) | – | – | > 100 µM (inactive) | > 100 µM (inactive) | > 100 µM (inactive) | > 100 µM (inactive) | > 100 µM (inactive) | > 100 µM (inactive) | > 100 µM (inactive) | > 100 µM (inactive) | > 100 µM (inactive) | > 100 µM (inactive) |
| CC1(c2nc3ccccc3[nH]2)CCC(C#N)C(C)(C)O1 (stereo not given) | > 100 µM (inactive) | > 100 µM (inactive) | > 100 µM (inactive) | > 100 µM (inactive) | 7.74 µM (inactive) | > 100 µM (inactive) | > 100 µM (inactive) | > 100 µM (inactive) | > 100 µM (inactive) | > 100 µM (inactive) | > 100 µM (inactive) | > 100 µM (inactive) | > 100 µM (inactive) | > 100 µM (inactive) | > 100 µM (inactive) | – | > 100 µM (inactive) | > 100 µM (inactive) | > 100 µM (inactive) | > 100 µM (inactive) |
| COc1ccc(C2C3C(=O)C=CC(=O)C3[C@@H]2C)cc1OC (stereo not given in full) | > 100 µM (inactive) | > 10 µM (inactive) | 78.5 µM (inactive) | > 100 µM (inactive) | > 100 µM (inactive) | 42.3 µM (inactive) | > 100 µM (inactive) | – | > 100 µM (inactive) | 17.5 µM (inactive) | > 100 µM (inactive) | > 100 µM (inactive) | 12.2 µM (inactive) | 42.1 µM (inactive) | > 100 µM (inactive) | > 100 µM (inactive) | > 10 µM (inactive) | > 100 µM (inactive) | 27.6 µM (inactive) | > 100 µM (inactive) |
| COC(=O)[C@H](Cc1ccc(O)cc1)NC(=O)[C@H](Cc1ccc(O)cc1)NC(=O)OC(C)(C)C (Boc-Tyr-Tyr-OMe) | > 100 µM (inactive) | – | 37.2 µM (inactive) | > 100 µM (inactive) | > 100 µM (inactive) | > 100 µM (inactive) | > 100 µM (inactive) | 43.8 µM (inactive) | > 100 µM (inactive) | 28 µM (inactive) | 66.4 µM (inactive) | 38 µM (inactive) | > 100 µM (inactive) | – | > 100 µM (inactive) | – | – | > 100 µM (inactive) | – | > 100 µM (inactive) |
| Oc1cc(O)c2c(c1)O[C@H](c1ccc(O)c(O)c1)[C@@H](O)C2 [CIANIDANOL] | > 100 µM (inactive) | > 100 µM (inactive) | > 100 µM (inactive) | > 100 µM (inactive) | > 100 µM (inactive) | > 100 µM (inactive) | > 100 µM (inactive) | > 100 µM (inactive) | > 100 µM (inactive) | > 100 µM (inactive) | > 100 µM (inactive) | > 100 µM (inactive) | > 100 µM (inactive) | > 100 µM (inactive) | – | – | > 100 µM (inactive) | > 100 µM (inactive) | > 100 µM (inactive) | > 100 µM (inactive) |
